The values below come from patent US11260129B2, “Phosphor-containing drug activator, suspension thereof, system containing the suspension, and methods for use” (IMMUNOLIGHT, LLC, priority 2016, dated 2022).

Experiment [1] has as its system 4T1-HER2 cells. Briefly: Annexin V positivity by flow cytometry (FIGS. 13B, 15, 16). The class given is cell-based, murine. The conditions noted are these: UVADEX alone, with or without x-ray (p 0.90 and 0.09). As for the experimental part:
In-vitro studies were conducted on plated cells following standard procedures. Cells were maintained in RPMI-1640 supplemented with 10% fetal bovine serum and L-glutamine from GIBCO (Grand Island, N.Y.) growing in a humidified atmosphere of 5% CO2. After incubation, cells were trypsinized and plated evenly onto twelve 12-well plates for 24 hours. About 20 minutes prior to irradiation, the 12 wells of each plate were exposed to the following combinations of additives: […] Each plate had 12 wells with three wells for each of the four treatment arms. The plates were then irradiated with x-rays by placing the plate at a known distance from the x-ray source (50 cm). After irradiation, the cells were incubated on the plate for 48 hours prior to performing flow cytometry. […] (after the 48 hour incubation) and plated onto the 96-well plate, Two primary flow cytometry analyses were used, both determined at 48 hours after treatment. […] The first analysis evaluated was metabolic cell viability (herein referred to as cell viability) calculated from the number of whole cells per well as determined using forward scattering (ESC). […] In FIG. 13A, cell viability after treatment (10 μM 8-MOP equivalent dilution of UVADEX, 50 μg/mL phosphor, 1 Gy of 80 kVp radiation) as determined by Guava flow cytome cytometry is depicted. […]
A general note: A flow cytometer gives signals particle by particle.

The test system of experiment [2] is 4T1-HER2 cells. Kind of experiment: Cell viability by Guava flow cytometry (FIG. 13A). The class given is cell-based, murine. The settings on record: UVADEX alone, 1 Gy 80 kVp; p=0.97. The protocol:
In-vitro studies were conducted on plated cells following standard procedures. Cells were maintained in RPMI-1640 supplemented with 10% fetal bovine serum and L-glutamine from GIBCO (Grand Island, N.Y.) growing in a humidified atmosphere of 5% CO2. After incubation, cells were trypsinized and plated evenly onto twelve 12-well plates for 24 hours. About 20 minutes prior to irradiation, the 12 wells of each plate were exposed to the following combinations of additives: […] Each plate had 12 wells with three wells for each of the four treatment arms. The plates were then irradiated with x-rays by placing the plate at a known distance from the x-ray source (50 cm). After irradiation, the cells were incubated on the plate for 48 hours prior to performing flow cytometry. For compatibility with 96-well Guava Nexin® assay, the remaining cells were again trypsinized. […] Two primary flow cytometry analyses were used, both determined at 48 hours after treatment. […] The first analysis evaluated was metabolic cell viability (herein referred to as cell viability) calculated from the number of whole cells per well as determined using forward scattering (ESC). […] In FIG. 13A, cell viability after treatment (10 μM 8-MOP equivalent dilution of UVADEX, 50 μg/mL phosphor, 1 Gy of 80 kVp radiation) as determined by Guava flow cytome cytometry is depicted. […]

Experiment [3] has as its system 4T1-HER2 cells. Kind of experiment: Methylene blue staining for cell viability. The conditions noted are these: individual components, 1 Gy of 80 kVp x-rays. The class given is cell-based, murine.
A further experiment relates to 4T1. Briefly: Cell-Titer-Glo Luminescence Cell Viability Assay, UV activated psoralen (FIG. 14A). It counts as cell-based, murine. The settings on record: psoralen 40 μM; UV light 0, 0.25, 0.5, 1.0 J/cm2; N=4. From the text:
(§1) Other assays were used to provide independent complimentary information on cell viability, e.g. Methylene blue staining and ATP-induced Luminescence imaging (Cell-Titer-Glo® Luminescence Cell Viability Assay). The luminescence imaging permitted investigation of the cytotoxicity of psoralen activated directly with a UV lamp, and in the absence of phosphors and x-ray radiation.
(§2) FIG. 14B presents data on CT2A malignant glioma cells, for a range of treatment parameters including variable x-ray dose (0, 0.67 and 1 Gy). phosphor concentration (50 or 100 μg) and psoralen concentration (8-MOP) at 10, 20 and 40 μM respectively. […] N=4 for each cell line at each UV light condition (0, 0.25, 0.5, 1.0 J/cm2). The psoralen concentration was 40 μM. For FIG. 14B, in CT2A cells, the treatment cytotoxicity increases with X-ray dose (0, 0.67 and 1.00 Gy respectively), concentration of 8-MOP psoralen (10, 20 and 40 μM respectively), and phosphor (50 and 100 μg/ml) respectively (p values shown thereon).

A further experiment deals with KP-B (sarcoma). The experiment is described as above. It counts as cell-based, murine. The conditions noted are these: psoralen 40 μM; UV light 0, 0.25, 0.5, 1.0 J/cm2; N=4.
Text: as §1, §2

Experiment [4] has as its system CT2A (murine malignant glioma). The description is as above. It counts as cell-based. The conditions noted are these: psoralen 40 μM; UV light 0, 0.25, 0.5, 1.0 J/cm2; N=4.
Text: as §1, §2

SMILES strings stand for the structures.

For the molecule `COc1c2occc2cc2ccc(=O)oc12` [UVADEX, 8-methoxypsoralen], the “apoptotic activity (Annexin V)” value in the experiment with 4T1-HER2 cells [1] was “negligible apoptotic activity”. In addition, the “effect of addition of radiation on cell viability” value with 4T1-HER2 cells [2] is “no significant effect”. For the same molecule, the “effect in methyl blue staining (FIGS. 13C, 13D)” value in the experiment on 4T1-HER2 cells [3] is listed as “little effect”.
Take `O=c1ccc2cc3ccoc3cc2o1` [psoralen]: the viable cells entry (in the experiment with 4T1; with KP-B (sarcoma); in experiment [4]) was “reduce viable cells” in each case.
